# From US11339130B1 (Blade Therapeutics, Inc., priority 2016, dated 2022)
# Columns and labels:
# Human Calpain 1/NS1 = molecular target: T1, Human Calpain 1/NS1 (Homo sapiens, UniProt P07384); experiment: Calpain inhibition continuous fluorescence (FRET) assay, Human Calpain 1/NS1; format: biochemical; details: Column A; read-out: Human Calpain 1/NS1 IC50
# T1 sequence (P07384 1-714): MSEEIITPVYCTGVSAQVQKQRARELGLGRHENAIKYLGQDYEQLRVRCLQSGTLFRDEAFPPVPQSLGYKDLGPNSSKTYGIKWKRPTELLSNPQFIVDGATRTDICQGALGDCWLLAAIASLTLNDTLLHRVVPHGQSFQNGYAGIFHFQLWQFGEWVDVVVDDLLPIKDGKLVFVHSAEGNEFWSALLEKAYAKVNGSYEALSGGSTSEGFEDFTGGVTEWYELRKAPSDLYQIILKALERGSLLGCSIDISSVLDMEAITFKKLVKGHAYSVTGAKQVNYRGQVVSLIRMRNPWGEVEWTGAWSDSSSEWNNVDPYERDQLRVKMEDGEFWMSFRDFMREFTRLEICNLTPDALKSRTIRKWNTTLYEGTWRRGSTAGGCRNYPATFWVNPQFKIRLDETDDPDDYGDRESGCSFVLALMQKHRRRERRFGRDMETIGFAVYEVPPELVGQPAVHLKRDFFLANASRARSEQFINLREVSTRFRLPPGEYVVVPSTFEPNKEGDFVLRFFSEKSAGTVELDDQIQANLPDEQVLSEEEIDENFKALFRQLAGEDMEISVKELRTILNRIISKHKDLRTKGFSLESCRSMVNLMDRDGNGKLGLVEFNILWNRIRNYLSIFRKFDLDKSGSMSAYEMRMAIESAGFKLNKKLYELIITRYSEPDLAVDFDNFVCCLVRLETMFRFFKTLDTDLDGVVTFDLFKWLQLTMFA
# T1 sequence (P04632 1-268 partner): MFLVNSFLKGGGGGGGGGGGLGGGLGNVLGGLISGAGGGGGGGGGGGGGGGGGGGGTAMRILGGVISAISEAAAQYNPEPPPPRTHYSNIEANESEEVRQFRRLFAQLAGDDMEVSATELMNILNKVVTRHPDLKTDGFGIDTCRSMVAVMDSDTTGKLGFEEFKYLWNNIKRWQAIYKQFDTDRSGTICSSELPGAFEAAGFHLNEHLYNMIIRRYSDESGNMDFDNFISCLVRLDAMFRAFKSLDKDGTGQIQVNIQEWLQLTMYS
# Procedure, shortened: (§1)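 Calpain activity is measured kinetically with a quenched FRET peptide in 50 mM Tris pH 7.5, 100 mM NaCl, 1 mM DTT, with CaCl2 triggering activation. Rates over 1-5 min are plotted against log inhibitor to obtain IC50 by 4-parameter logistic fitting.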
# Human Calpain 2/NS1 = molecular target: T2, Human Calpain 2/NS1 (Homo sapiens, UniProt P17655); experiment: Calpain inhibition continuous fluorescence (FRET) assay, Human Calpain 2/NS1; format: biochemical; details: Column B; read-out: Human Calpain 2/NS1 IC50
# T2 sequence (P17655 1-700): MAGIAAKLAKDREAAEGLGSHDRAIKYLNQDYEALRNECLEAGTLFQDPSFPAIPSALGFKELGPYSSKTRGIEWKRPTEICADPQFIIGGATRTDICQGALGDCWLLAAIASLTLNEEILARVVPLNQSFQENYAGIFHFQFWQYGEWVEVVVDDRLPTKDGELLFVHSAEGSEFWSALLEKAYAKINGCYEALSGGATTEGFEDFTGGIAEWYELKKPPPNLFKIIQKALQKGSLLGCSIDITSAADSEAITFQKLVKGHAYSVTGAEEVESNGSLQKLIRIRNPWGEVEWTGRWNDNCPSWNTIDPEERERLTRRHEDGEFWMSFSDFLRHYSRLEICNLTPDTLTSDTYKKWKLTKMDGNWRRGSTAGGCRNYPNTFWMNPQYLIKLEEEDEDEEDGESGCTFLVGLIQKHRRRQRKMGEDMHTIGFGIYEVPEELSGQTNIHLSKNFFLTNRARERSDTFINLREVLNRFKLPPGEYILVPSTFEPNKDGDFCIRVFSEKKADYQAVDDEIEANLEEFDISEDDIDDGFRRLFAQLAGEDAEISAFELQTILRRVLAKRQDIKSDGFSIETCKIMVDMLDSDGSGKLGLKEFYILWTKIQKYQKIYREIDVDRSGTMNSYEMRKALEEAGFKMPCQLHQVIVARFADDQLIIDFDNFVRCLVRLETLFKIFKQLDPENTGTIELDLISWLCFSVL
# T2 sequence (P04632 1-268 partner): T1 sequence (P04632 1-268 partner)
# Procedure, shortened: as §1
# Human Calpain 9/NS1 = molecular target: T3, Human Calpain 9/NS1 (Homo sapiens, UniProt O14815); experiment: Calpain inhibition continuous fluorescence (FRET) assay, Human Calpain 9/NS1; format: biochemical; details: Column C; read-out: Human Calpain 9/NS1 IC50
# T3 sequence (O14815 1-690): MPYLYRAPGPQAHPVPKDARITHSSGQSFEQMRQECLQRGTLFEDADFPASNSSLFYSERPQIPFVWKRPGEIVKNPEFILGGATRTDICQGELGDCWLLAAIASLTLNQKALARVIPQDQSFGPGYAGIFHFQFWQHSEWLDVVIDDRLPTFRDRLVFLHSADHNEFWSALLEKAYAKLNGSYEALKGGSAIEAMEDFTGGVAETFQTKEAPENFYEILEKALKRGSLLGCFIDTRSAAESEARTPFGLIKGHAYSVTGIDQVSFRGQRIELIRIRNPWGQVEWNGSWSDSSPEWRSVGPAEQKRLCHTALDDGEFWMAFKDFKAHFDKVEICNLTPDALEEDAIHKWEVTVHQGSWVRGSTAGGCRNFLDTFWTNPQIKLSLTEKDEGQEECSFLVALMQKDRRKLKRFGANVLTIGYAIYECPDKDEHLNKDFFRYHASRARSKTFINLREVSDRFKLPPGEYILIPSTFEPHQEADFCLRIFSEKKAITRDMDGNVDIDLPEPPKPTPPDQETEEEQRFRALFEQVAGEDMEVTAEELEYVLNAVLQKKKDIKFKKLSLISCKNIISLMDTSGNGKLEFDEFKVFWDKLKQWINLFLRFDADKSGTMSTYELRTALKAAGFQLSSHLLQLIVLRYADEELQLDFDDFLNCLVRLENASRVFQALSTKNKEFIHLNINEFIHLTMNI
# T3 sequence (P04632 1-268 partner): T1 sequence (P04632 1-268 partner)
# Procedure, shortened: as §1
# [1] = test system: Calpain activity in SH-SY5Y cells (SBDP-150); experiment: SH-SY5Y Spectrin western blot assay (SBDP-150 breakdown product, A23187-induced); format: cell-based; details: Homo sapiens; Column D; SH-SY5Y cells, A23187-induced SBDP-150; read-out: SH-SY5Y Spectrin IC50
# [2] = test system: Calpain activity in SH-SY5Y cells; experiment: SH-SY5Y + AMC fluorescence assay (Suc-LLVY-AMC substrate); format: cell-based; details: Column E, read-out: SH-SY5Y + AMC IC50
Compound,IC50 (Human Calpain 1/NS1) [µM],IC50 (Human Calpain 2/NS1) [µM],IC50 (Human Calpain 9/NS1) [µM],IC50 [1] [µM],IC50 [2] [µM]
"CCn1cc(C(=O)N[C@@H](Cc2ccccc2)C(=O)C(N)=O)c(-c2ccccc2)n1 [Compound 239, (S)—N-(4-amino-3,4-dioxo-1-phenylbutan-2-yl)-1-ethyl-3-phenyl-1H-pyrazole-4-carboxamide]",< 3,< 3,< 3,10 to 25,< 10
"CC(C)n1cc(C(=O)N[C@@H](Cc2ccccc2)C(=O)C(N)=O)c(-c2ccccc2)n1 [Compound 242, (S)—N-(4-amino-3,4-dioxo-1-phenylbutan-2-yl)-1-isopropyl-3-phenyl-1H-pyrazole-4-carboxamide]",< 3,< 3,< 3,> 25,< 10
"CC[C@H](NC(=O)c1oc(C)nc1-c1ccccc1)C(=O)C(N)=O [Compound 243, (S)—N-(1-amino-1,2-dioxopentan-3-yl)-2-methyl-4-phenyloxazole-5-carboxamide]",< 3,< 3,< 3,10 to 25,> 25
"Cc1cc(C(=O)N[C@@H](Cc2ccccc2)C(=O)C(N)=O)n(-c2ccnc(C)n2)n1 [Compound 244, (S)—N-(4-amino-3,4-dioxo-1-phenylbutan-2-yl)-3-methyl-1-(2-methylpyrimidin-4-yl)-1H-pyrazole-5-carboxamide]",< 3,< 3,< 3,> 25,< 10
"Cc1cc(C(=O)N[C@@H](Cc2ccccc2)C(=O)C(N)=O)n(-c2ccncn2)n1 [Compound 245, (S)—N-(4-amino-3,4-dioxo-1-phenylbutan-2-yl)-3-methyl-1-(pyrimidin-4-yl)-1H-pyrazole-5-carboxamide]",< 3,< 3,< 3,10 to 25,< 10
"Cc1cc(C(=O)N[C@@H](Cc2ccccc2)C(=O)C(N)=O)n(-c2ccnc(Cl)n2)n1 [Compound 246, (S)—N-(4-amino-3,4-dioxo-1-phenylbutan-2-yl)-1-(2-chloropyrimidin-4-yl)-3-methyl-1H-pyrazole-5-carboxamide]",< 3,< 3,< 3,10 to 25,< 10
"Cc1nc(-c2ccc(F)cc2)c(C(=O)N[C@@H](Cc2ccccc2)C(=O)C(N)=O)o1 [Compound 248, (S)—N-(4-amino-3,4-dioxo-1-phenylbutan-2-yl)-4-(4-fluorophenyl)-2-methyloxazole-5-carboxamide]",< 3,< 3,< 3,< 10,< 10
"NC(=O)C(=O)[C@H](Cc1ccccc1)NC(=O)c1c(-c2ccccc2)oc2ccccc12 [Compound 249, (S)—N-(4-amino-3,4-dioxo-1-phenylbutan-2-yl)-2-phenylbenzofuran-3-carboxamide]",< 3,< 3,< 3,10 to 25,> 25
"NC(=O)C(=O)[C@H](Cc1ccccc1)NC(=O)c1cn(CC2CC2)nc1-c1ccccc1 [Compound 251, (S)—N-(4-amino-3,4-dioxo-1-phenylbutan-2-yl)-1-(cyclopropylmethyl)-3-phenyl-1H-pyrazole-4-carboxamide]",< 3,< 3,< 3,> 25,> 25
"NC(=O)C(=O)[C@H](Cc1ccccc1)NC(=O)c1cn(C#Cc2ccccc2)c2ccccc12 [Compound 252, (S)—N-(4-amino-3,4-dioxo-1-phenylbutan-2-yl)-1-(phenylethynyl)-1H-indole-3-carboxamide]",> 10,> 10,> 10,> 25,> 25
"Cc1nc(-c2ccccc2)c(C(=O)N[C@@H](CC(C)C)C(=O)C(N)=O)o1 [Compound 253, (S)—N-(1-amino-5-methyl-1,2-dioxohexan-3-yl)-2-methyl-4-phenyloxazole-5-carboxamide]",< 3,< 3,< 3,10 to 25,> 25
"NC(=O)C(=O)[C@H](Cc1ccccc1)NC(=O)c1oc(C(F)(F)F)nc1-c1ccccc1 [Compound 255, (S)—N-(4-amino-3,4-dioxo-1-phenylbutan-2-yl)-4-phenyl-2-(trifluoromethyl)oxazole-5-carboxamide]",< 3,< 3,< 3,< 10,< 10
"Cc1n[nH]c(-c2ccccc2)c1C(=O)N[C@@H](Cc1ccccc1)C(=O)C(N)=O [Compound 257, (S)—N-(4-amino-3,4-dioxo-1-phenylbutan-2-yl)-3-methyl-5-phenyl-1H-pyrazole-4-carboxamide]",< 3,< 3,< 3,10 to 25,< 10
"Cn1nc(C(=O)N[C@@H](Cc2ccccc2)C(=O)C(N)=O)c(-c2ccccc2)n1 [Compound 259, (S)—N-(4-amino-3,4-dioxo-1-phenylbutan-2-yl)-2-methyl-5-phenyl-2H-1,2,3-triazole-4-carboxamide]",< 3,< 3,< 3,< 10,10 to 25
"Cc1nc(-c2ccccn2)c(C(=O)N[C@@H](Cc2ccccc2)C(=O)C(N)=O)o1 [Compound 266, (S)—N-(4-amino-3,4-dioxo-1-phenylbutan-2-yl)-2-methyl-4-(pyridin-2-yl)oxazole-5-carboxamide]",< 3,< 3,< 3,> 25,> 25
